Results taken from ChEMBL document CHEMBL1131352, “Identification of a series of 1,2,3,4-tetrahydroisoquinolinyl-benzamides with potential anticonvulsant activity” (Bioorg Med Chem Lett, 1998).

Tests used:
[1] = species: Rattus norvegicus; assay: Anticonvulsant activity was determined in rat maximal electroshock seizure threshold (MEST) model at 4 hour post dose.; assay type: functional
[2] = target: SB-204269 binding site; assay: Inhibition of [3H]SB-204269 binding in rat forebrain; assay type: tissue-based
[3] = species: Mus musculus; assay: Anticonvulsant activity was determined in mouse maximal electroshock seizure threshold (MEST) model at 1 hour post dose.; assay type: functional
[4] = species: Rattus norvegicus; assay: Anticonvulsant activity was determined in rat maximal electroshock seizure threshold (MEST) model at 4 hour post dose; assay type: functional
[5] = target: SB-204269 binding site; assay: Binding affinity for [3H]SB-204269 in rat forebrain; assay type: tissue-based
[6] = species: Mus musculus; assay: Anticonvulsant activity was determined in mouse maximal electroshock seizure threshold (MEST) model at 1 hour post dose; assay type: functional

| SMILES | Log Ki [2] | Increase [3] | further results |
| --- | --- | --- | --- |
| COc1cc(C(C)(C)C)ccc1C(=O)Nc1cccc2c1CCN(C)C2 | -7.7 | 140% | Increase [1]: 330% |
| CCc1cc(OC)c(C(=O)Nc2cccc3c2CCN(C)C3)cc1Cl | -7.9 | 100% |  |
| COc1cc(C)c(Cl)cc1C(=O)Nc1cccc2c1CCN(C)C2 | -7.6 | 50% |  |
| COc1cc(C(C)(C)C)ccc1C(=O)Nc1ccc2c(c1)CCN(C)C2 | -6.4 | 4% |  |
| COc1cc(N)c(Cl)cc1C(=O)Nc1cccc2c1CN(C)CC2 | -6.1 |  |  |
| COc1cc(Cl)ccc1C(=O)Nc1cccc2c1CCN(C)C2 | -6.1 |  |  |
| COc1c(Cl)cc(Cl)cc1C(=O)Nc1cccc2c1CCN(C)C2 | -5.4 |  |  |
| CN1CCc2c(cccc2NC(=O)c2ccc(C(C)(C)C)cc2)C1 | -6 |  |  |
| CCc1ccc(C(=O)Nc2cccc3c2CCN(C)C3)c(OC)c1 | -7.3 | 60% |  |
| COc1ccccc1C(=O)Nc1cccc2c1CCN(C)C2 | -5.8 |  |  |
| COc1cc(C(C)(C)C)c(Cl)cc1C(=O)Nc1cccc2c1CCN(C)C2 | -6.9 |  |  |
| COc1ccc(Cl)cc1C(=O)Nc1cccc2c1CCN(C)C2 | -7 | 20% |  |
| CN1CCc2c(cccc2NC(=O)c2cccc(Cl)c2)C1 | < -5 |  |  |
| COc1cc([N+](=O)[O-])c(Cl)cc1C(=O)Nc1cccc2c1CCN(C)C2 | -6.8 |  |  |
| COc1ccc(Cl)cc1C(=O)Nc1ccc2c(c1)CN(C)CC2 | -7.2 | 4% |  |
| COc1cc(N)c(Cl)cc1C(=O)Nc1cccc2c1CCN(C)C2 | -7.8 | 25% |  |
| COc1cc(C(C)(C)C)ccc1C(=O)Nc1ccc2c(c1)CN(C)CC2 | -7.6 | 130% | Increase [1]: 110% |
| CC(=O)c1ccc2c(c1)[C@H](NC(=O)c1ccc(F)cc1)[C@@H](O)C(C)(C)O2 [CARABERSAT] |  |  | Increase [4]: 570%; Log Ki [5]: -7.3; Increase [6]: 100% |
